According to US12379386B2, “Antibodies to 25-hydroxyvitamin D2 and D3 for detecting total 25-hydroxyvitamin D” (Siemens Healthcare Diagnostics Inc., priority 2011, dated 2025):
“And” between values parts separate entries of the source, which are not always exact repeats. Equal values may be shown once.

Assays:
[1] = test system: anti 25-hydroxy Vitamin D monoclonal antibody labeled with acridinium ester (monoclonal antibody 10H9); experiment: Cross-reactivity in ADVIA Centaur Vitamin D Total assay; format: binding, mouse
Protocol: Biological sample is added to a reaction cuvette followed by displacement buffer and allowed to react for 4.5 minutes. Monoclonal antibody conjugated to acridinium ester is added and allowed to react for 5.5 minutes to bind 25-hydroxyvitamin D in the sample. […] The reaction cuvette is washed, and acid and base reagents are added to initiate the chemiluminescent reaction. The time-to-result is 18 minutes. An inverse relationship exists between the amount of 25-hydroxyvitamin D in the patient sample and the amount of relative light units (RLUs) detected by the system.
Assay: The ADVIA Centaur Vitamin D Total assay is a one-pass, 18-minute antibody competitive immunoassay that uses an antifluorescein-labeled monoclonal antibody covalently bound to paramagnetic particles (PMPs), one monoclonal antibody labeled with acridinium ester (AE), and a vitamin D analog labeled with fluorescein (FIG. 8). The Vitamin D Total assay requires 20 μL of sample volume for a single determination. The time-to-first-result is 18 minutes and the throughput is 240 tests/hour.
Briefly, the first step of the sequential step hapten/antibody competitive immunoassay using chemiluminescent technology begins with the analyzer dispensing 20 μL of biological sample into a cuvette followed by addition of 200 μl of displacement buffer (50 mM HEPES, 150 mM NaCl, 0.09% sodium azide, pH=7.5) containing 8-anilino-1-naphthalenesulfonic acid ammonium salt (Sigma-aldrich, St. Louis, MO) and ethylene glycol (Sigma-aldrich, St. Louis, MO) and incubation for 4.5 minutes at 37° C. Lite Reagent (50 μL) containing an anti 25-hydroxy Vitamin D monoclonal antibody labeled with acridinium ester (monoclonal antibody 10H9) is added to the mixture and incubated for 5.5 min at 37° C. C22-PEG-BSA-fluorescein conjugate (50 μL) and anti-fluorescein monoclonal antibody coated paramagnetic microparticles (100 μL) are added to the mixture and incubated for 3.75 minutes at 37° C. The fourth step is separation of Solid Phase complex with bound C22-PEG-BSA-fluorescein conjugate and anti 25-hydroxy vitamin D monoclonal antibody labeled with acridinium ester, followed by washing three times to remove any free Lite Reagent. Last is the sequential dispensing of 300 μL each of acid reagent then base reagent to initiate the chemiluminescent reaction. The total incubation time from sample to result is 18 minutes. There is an indirect relationship between the amount of 25-hydroxy vitamin D present in the biological sample and the amount of chemiluminescence quantified as relative light units (RLUs). In the Centaur-based assay, there is an inverse relationship between RLUs emitted by the acridinium ester and the amount of vitamin D because the 25-hydroxyvitamin D released from the carrier protein in the plasma competes with the Vitamin D-BSA-Fluorescein for binding with a limited amount of the acridinium-labeled 10H9 monoclonal antibody. Higher levels of 25(OH)D in the patient sample would lower the amount of the acridinium-MAb-VitD-BSA-Fluorescein complex on the magnetic particles resulting in lower RLUs.
Cross-reactivity: Five vitamin D derivatives were analyzed using the ADVIA Centaur Vitamin D Total assay. The vitamin D derivatives were spiked into a sample containing 27 ng/mL of vitamin D total. Three replicates of the spiked samples were assayed and the vitamin D total concentration determined.

[2] = test system: BALB/c mice; experiment: ELISA of sera from mice immunized with vitamin D-C22 BSA; format: in vivo, mouse; details: coat Vit D C22 Lc-BSA 500 ng/mL, individual mice 0-4 in c3-c7
Protocol: Experiments were conducted to produce antibodies that could preferentially bind to molecules having structural aspects of the vitamin D-C22 antigenic molecule. These experiments were conducted in accordance with the method of Galfre et al. (Nature, 266:550 (1977)), as modified by Oi and Herzenberg (Selected Methods in Cellular Immunology (1980)). Initially, BALB/c mice were immunized with vitamin D-C22 BSA emulsified in Freund's Complete adjuvant followed by a secondary immunization using Freund's Incomplete adjuvant. Sera of immunized mice were collected two weeks after the secondary immunization.
Collected sera were tested for antigen reactivity by ELISA as follows: microtiter plates coated with vitamin D-C22 BSA were incubated with mouse antisera, diluted in dilution buffer, for one hour. Plates were washed and a secondary antibody (goat-anti-mouse IgG) conjugated to horseradish peroxidase (HRPO) in dilution buffer was added and incubated for 30 minutes. Plates were washed and the colorimetric substrate 3,3′,5,5′-tetramethylbenzidine (TMB) was added. The generated color was stopped using 1N sulfuric acid and the optical density was measured at 450 nm.

[3] = crossreactant 100 ng/mL spiked, expected (endogenous) vitamin D total 27 ng/mL

For `C=C1CC[C@H](O)C/C1=C/C=C1\CCC[C@]2(C)[C@@H]([C@H](C)CCCC(C)C)CC[C@@H]12` [Vitamin D3], the “Cross-reactivity (in words)” value [1] was “very low cross-reactivity” and the Cross-reactivity [1, 3] was 0.04%.
For “vitamin D-C22 diaminobutane-suberoyl-BSA [Vit D C22]”, the “optical density at 450 nm” value ([2]; serum dilution 1:100) was 3.747 and 3.687 and 3.625 and 3.700 and 3.652, the “optical density at 450 nm” value ([2]; serum dilution 1:200) was 3.750 and 3.693 and 3.649 and 3.663 and 3.634 and the “optical density at 450 nm” value ([2]; serum dilution 1:400) was 3.602 and 3.640 and 3.633 (2×) and 3.441. For the same compound, the “optical density at 450 nm” value ([2]; serum dilution 1:800) was 3.634 and 3.731 and 3.603 and 3.708 and 3.696, the “optical density at 450 nm” value ([2]; serum dilution 1:1600) was 3.578 and 3.605 and 3.532 and 3.638 and 3.687 and the “optical density at 450 nm” value ([2]; serum dilution 1:3200) was 3.534 and 3.508 and 3.171 and 3.454 and 3.608. For the same compound, the “optical density at 450 nm” value ([2]; serum dilution 1:6400) was 3.177 and 3.133 and 2.533 and 3.057 and 3.473 and the “optical density at 450 nm” value ([2]; serum dilution 1:12800) was 2.449 and 2.406 and 1.731 and 2.325 and 3.042.
In the case of `C=C1CC[C@H](O)C/C1=C/C=C1\CCC[C@]2(C)[C@@H]([C@H](C)/C=C/[C@H](C)C(C)C)CC[C@@H]12` [Vitamin D2], the “Cross-reactivity (in words)” value [1] is reported as “very low cross-reactivity” and the Cross-reactivity [1, 3] is reported as 0.04%.
In the case of `C=C1CC[C@H](O)C/C1=C/C=C1\CCC[C@]2(C)[C@@H]([C@H](C)/C=C/[C@H](C)C(C)(C)O)CC[C@@H]12` [25-(OH)-Vit D2, 25-hydroxyvitamin D2], the Cross-reactivity ([1]; at 50 ng/mL) is reported as 105% and the Cross-reactivity ([1]; crossreactant 30 ng/mL spiked, expected (endogenous) vitamin D total 27 ng/mL) is reported as 102%.
Work on `C=C1CC[C@H](O)C/C1=C/C=C1\CCC[C@]2(C)[C@@H]([C@H](C)CCCC(C)(C)O)CC[C@@H]12` [25-(OH)-Vit D3, 25-hydroxyvitamin D3] yielded a Cross-reactivity ([1]; crossreactant 27 ng/mL, expected (endogenous) vitamin D total 0 ng/mL) of 100%.
`C=C1CC[C@@H](O)C/C1=C/C=C1\CCC[C@]2(C)[C@@H]([C@H](C)CCCC(C)(C)O)CC[C@@H]12` [3-epi-25(OH)D3] was tested, and the “Cross-reactivity (in words)” value [1] was “very low cross-reactivity” and the Cross-reactivity [1, 3] was 0.0%.
